Key:
[1] = target: T1, NcLPMO9C (Neurospora crassa, UniProt Q7SHI8); experiment: HPAEC-PAD product analysis; assay type: biochemical; details: 1 mM substrate, 1 µM LPMO, 1 mM ascorbic acid, 50 mM BisTris-HCl pH 6.5, 40 °C, 16 h
T1 construct: gene gh61-3; CBM1-containing enzyme, produced in Pichia pastoris as described earlier, copper-saturated
T1 sequence (Q7SHI8 17-359): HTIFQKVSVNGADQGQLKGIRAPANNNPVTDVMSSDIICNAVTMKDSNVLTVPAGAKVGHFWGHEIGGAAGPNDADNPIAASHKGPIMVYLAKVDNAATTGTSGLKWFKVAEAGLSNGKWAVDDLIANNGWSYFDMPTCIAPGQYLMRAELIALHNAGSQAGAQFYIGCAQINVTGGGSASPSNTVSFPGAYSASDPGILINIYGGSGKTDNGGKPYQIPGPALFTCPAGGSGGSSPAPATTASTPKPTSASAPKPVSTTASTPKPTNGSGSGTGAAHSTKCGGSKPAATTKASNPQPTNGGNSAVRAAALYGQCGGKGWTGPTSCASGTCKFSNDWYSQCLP

[2] = target: T2, ScLPMO9A (Schizophyllum commune, UniProt D8Q364); experiment: NMR titration, […]-HSQC chemical shift perturbation; assay type: binding; details: copper-free apo enzyme, 15N-labelled, 25 mM Tris-HCl pH 7.0, 25 mM NaCl, 2.3% glycerol, 25 °C
T2 construct: gene LPMO9A; residues 20-247, pelB signal peptide for periplasmic export, E. coli T7 Express, no tag told; single domain without CBM; 15N-labelled copper-free (apo) protein for NMR
T2 sequence (D8Q364 20-247): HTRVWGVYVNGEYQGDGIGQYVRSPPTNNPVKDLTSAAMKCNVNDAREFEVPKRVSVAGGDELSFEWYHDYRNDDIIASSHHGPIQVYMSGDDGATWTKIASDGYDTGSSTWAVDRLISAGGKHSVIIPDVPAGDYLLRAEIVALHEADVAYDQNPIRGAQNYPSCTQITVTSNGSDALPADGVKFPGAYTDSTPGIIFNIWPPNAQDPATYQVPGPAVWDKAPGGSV

Row | SMILES | HPAEC-PAD product analysis [1] | Kd ([2]; range from four 1H-15N signals) [µM] | Kd ([2]; range from two 1H-15N signals) [µM]
1 | OC[C@H]1O[C@@H](O[C@H]2[C@H](O)[C@@H](O)[C@H](O[C@H]3[C@H](O)[C@@H](O)[C@H](O[C@H]4[C@H](O)[C@@H](O)[C@H](O[C@H]5[C@H](O)[C@@H](O)[C@H](O[C@H]6[C@H](O)[C@@H](O)C(O)O[C@@H]6CO)O[C@@H]5CO)O[C@@H]4CO)O[C@@H]3CO)O[C@@H]2CO)[C@H](O)[C@@H](O)[C@@H]1O (stereo partly shown) [cellohexaose] | With cellohexaose (Glc6), NcLPMO9C generated primarily Glc4gemGlc and cellotetraose | 10 to 40 | –
2 | OC[C@H]1O[C@@H](O[C@H]2[C@H](O)[C@@H](O)[C@H](O[C@H]3[C@H](O)[C@@H](O)[C@H](O[C@H]4[C@H](O)[C@@H](O)[C@H](O[C@H]5[C@H](O)[C@@H](O)C(O)O[C@@H]5CO)O[C@@H]4CO)O[C@@H]3CO)O[C@@H]2CO)[C@H](O)[C@@H](O)[C@@H]1O (stereo partly shown) [cellopentaose] | – | – | 30 to 50
3 | OC[C@H]1O[C@@H](O[C@H]2[C@H](O)[C@@H](O)[C@H](O[C@H]3[C@H](O)[C@@H](O)[C@H](O[C@H]4[C@H](O)[C@@H](O)C(O)O[C@@H]4CO)O[C@@H]3CO)O[C@@H]2CO)[C@H](O)[C@@H](O)[C@@H]1O (stereo partly shown) [cellotetraose] | NcLPMO9C showed limited activity on cellotetraose (Glc4) | – | –

Reference: PMC10575960, “Functional characterization of a lytic polysaccharide monooxygenase from Schizophyllum commune that degrades non-crystalline substrates” (Scientific Reports, 2023)
